Assay results as given in US20250304576A1 (Cancer Research Technology Limited, priority 2022, published 2025).

Tests used:
[1] = molecular target: T1, Recombinant IKKα (Homo sapiens, UniProt O15111); assay: DELFIA IKKα kinase assay (apparent Ki, Cheng-Prusoff); type: biochemical; settings: non-italicised figure: DELFIA assay
T1 construct: purchased Millipore, Dundee, UK
T1 sequence (O15111 1-745): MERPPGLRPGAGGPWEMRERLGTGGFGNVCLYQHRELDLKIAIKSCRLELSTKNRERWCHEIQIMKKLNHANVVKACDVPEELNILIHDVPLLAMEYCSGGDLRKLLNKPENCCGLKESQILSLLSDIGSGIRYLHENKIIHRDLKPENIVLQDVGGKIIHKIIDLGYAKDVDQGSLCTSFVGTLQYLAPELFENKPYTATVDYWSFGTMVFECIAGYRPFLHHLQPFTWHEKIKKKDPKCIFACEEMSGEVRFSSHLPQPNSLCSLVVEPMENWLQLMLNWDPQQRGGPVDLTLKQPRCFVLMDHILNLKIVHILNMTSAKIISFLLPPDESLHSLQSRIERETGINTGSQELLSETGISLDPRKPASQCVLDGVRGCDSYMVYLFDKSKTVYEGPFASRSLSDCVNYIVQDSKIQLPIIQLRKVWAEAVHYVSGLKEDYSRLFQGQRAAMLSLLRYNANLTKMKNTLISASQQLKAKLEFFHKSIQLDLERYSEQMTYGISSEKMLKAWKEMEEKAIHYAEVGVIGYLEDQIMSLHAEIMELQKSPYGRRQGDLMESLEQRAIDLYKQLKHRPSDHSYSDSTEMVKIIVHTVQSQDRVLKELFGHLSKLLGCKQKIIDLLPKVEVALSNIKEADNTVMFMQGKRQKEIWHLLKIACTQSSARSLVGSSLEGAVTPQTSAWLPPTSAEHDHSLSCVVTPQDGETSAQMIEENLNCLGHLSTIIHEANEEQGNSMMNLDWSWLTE
Protocol: (§1) IKKα and IKKβ inhibitory activity was determined using three different assays: a dissociation enhanced ligand fluorescent immunoassay (DELFIA) based on the protocol of HTScan™ IKKβ Kinase Assay (Cell Signaling Technology, USA); an Adapta IKKα assay (performed by Life Technologies); a Z′-LYTE™ IKKβ assay (performed by Life Technologies).
(§2) Recombinant IKKα or IKKβ, 37 nM, (Millipore, Dundee, UK) was incubated with IηB-α (Ser32) (New England Biolabs, Hitchin, UK) biotinylated peptide substrate (0.375 μM) and 40 μM ATP in assay buffer (40 mM Tris-HCl (pH 7.5), 20 mM MgCl2, EDTA 1 mM, DTT 2 mM and BSA 0.01 mg/ml) in a V-well 96-well plate in the presence and absence of test compound. The assay plate was incubated for 60 minutes at 30° C. after which the kinase reaction was quenched by the addition of 50 mM EDTA, pH8. The resulting mixture was transferred to a streptavidin coated 96-well plate (Perkin Elmer, Beaconsfield, UK) and incubated for 1 hour at 30° C. to immobilise the substrate peptide. After three washes with wash buffer (0.01 M phosphate buffered saline (PBS), 0.05% Tween −20, pH 7.4) a primary antibody against the phosphorylated substrate (phospho-IηB-a) (Ser32/36) (5A5) Mouse mAb (New England Biolabs, Hitchin, UK) (1:1000 dilution with 1% bovine serum albumin (BSA) in wash buffer) was added and incubated at 37° C. for 2 h.
(§3) After a further three washes, a secondary europiated antibody (Eu-N1 labelled anti-mouse IgG, (Perkin Elmer, Beaconsfield, UK) diluted 1:500 in 1% BSA/wash buffer) was added and incubated at 30° C. for 30 minutes. After a further five washes, DELFIA enhancement solution—(Perkin Elmer, Beaconsfield UK) was added and allowed to incubate for 10 min at room temperature, protected from light, to facilitate the chemifluorescent detection. The relative fluorescence units (RFU) signal were measured on a Wallac Victor 1420 multilabel counter (Perkin Elmer, Beaconsfield, UK), in time-resolved fluorescence mode. The counter was set at an excitation wavelength of 340 nm with a 400 μs delay before detecting emitted light at 615 nm. The apparent Ki of the […] was calculated for each compound using the Cheng-Prusoff Equation.
(§4) The IKKα and IKKβ figures quoted in non-italicised form are from the DELFIA assay described above.

[2] = molecular target: T2, Recombinant IKKβ (Homo sapiens, UniProt O14920); assay: DELFIA IKKβ kinase assay (apparent Ki, Cheng-Prusoff); type: biochemical; settings: non-italicised figure: DELFIA assay
T2 construct: purchased Millipore, Dundee, UK
T2 sequence (O14920 1-756): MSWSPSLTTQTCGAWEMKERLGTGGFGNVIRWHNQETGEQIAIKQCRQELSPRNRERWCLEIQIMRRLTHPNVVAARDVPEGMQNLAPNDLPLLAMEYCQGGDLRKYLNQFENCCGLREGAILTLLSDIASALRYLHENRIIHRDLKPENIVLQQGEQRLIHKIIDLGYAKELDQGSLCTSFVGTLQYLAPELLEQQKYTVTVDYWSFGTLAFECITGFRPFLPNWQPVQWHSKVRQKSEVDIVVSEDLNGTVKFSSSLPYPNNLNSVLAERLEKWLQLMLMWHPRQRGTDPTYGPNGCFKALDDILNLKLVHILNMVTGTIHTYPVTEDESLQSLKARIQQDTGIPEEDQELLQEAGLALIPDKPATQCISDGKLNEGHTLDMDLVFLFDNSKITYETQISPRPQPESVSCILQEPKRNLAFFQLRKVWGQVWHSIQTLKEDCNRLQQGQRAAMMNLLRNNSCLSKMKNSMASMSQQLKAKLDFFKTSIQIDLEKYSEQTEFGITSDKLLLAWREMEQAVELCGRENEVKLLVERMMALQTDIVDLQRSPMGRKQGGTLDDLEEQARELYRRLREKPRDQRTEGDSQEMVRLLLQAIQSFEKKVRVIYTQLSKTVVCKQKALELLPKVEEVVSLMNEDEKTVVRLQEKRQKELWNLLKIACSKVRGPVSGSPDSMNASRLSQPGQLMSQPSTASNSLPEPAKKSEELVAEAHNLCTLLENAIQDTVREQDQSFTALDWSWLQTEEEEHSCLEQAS
Protocol: as §1, §2, §3, §4

Row | Ki [1] | Ki [2] | Compound
1 | 152 nM | 357 nM | Nc1n[nH]c2ccc(-c3ccnc(NC(=O)NCc4ccccc4)c3)cc12 [Example 45, 1-(4-(3-Amino-1H-indazol-5-yl)pyridin-2-yl)-3-benzylurea]
2 | 571 nM | > 10000 nM | Nc1n[nH]c2ccc(-c3ccnc(NC(=O)NCCc4ccccc4)c3)cc12 [Example 46, 1-(4-(3-Amino-1H-indazol-5-yl)pyridin-2-yl)-3-phenethylurea]
3 | 38 nM | 838 nM | Nc1n[nH]c2ccc(-c3ccnc(NC(=O)NCc4ccccn4)c3)cc12 [Example 47, 1-(4-(3-Amino-1H-indazol-5-yl)pyridin-2-yl)-3-(pyridin-2-ylmethyl)urea]
4 | 76 nM | 840 nM | Nc1n[nH]c2ccc(-c3ccnc(NC(=O)NCc4cccnc4)c3)cc12 [Example 48, 1-(4-(3-Amino-1H-indazol-5-yl)pyridin-2-yl)-3-(pyridin-3-ylmethyl)urea]
5 | 304 nM | 1840 nM | Nc1n[nH]c2ccc(-c3ccnc(NC(=O)NCc4ccncc4)c3)cc12 [Example 49, 1-(4-(3-Amino-1H-indazol-5-yl)pyridin-2-yl)-3-(pyridin-4-ylmethyl)urea]
6 | 12 nM | 293 nM | Nc1n[nH]c2ccc(-c3ccnc(NC(=O)Nc4ccccc4)c3)cc12 [Example 50, 1-(4-(3-Amino-1H-indazol-5-yl)pyridin-2-yl)-3-phenylurea]
7 | 14 nM | 126 nM | Nc1n[nH]c2ccc(-c3ccnc(NC(=O)Nc4cccc(F)c4)c3)cc12 [Example 51, 1-(4-(3-Amino-1H-indazol-5-yl)pyridine-2-yl)-3-(3-fluorophenyl)urea]
8 | 36 nM | 400 nM | Nc1n[nH]c2ccc(-c3ccnc(NC(=O)Nc4cccc(Cl)c4)c3)cc12 [Example 52, 1-(4-(3-Amino-1H-indazol-5-yl)pyridin-2-yl)-3-(3-chlorophenyl)urea]
9 | 14 nM | 419 nM | CC(C)c1cccc(NC(=O)Nc2cc(-c3ccc4[nH]nc(N)c4c3)ccn2)c1 [Example 53]
10 | 14 nM | 419 nM | Nc1n[nH]c2ccc(-c3ccnc(NC(=O)Nc4cccc(CO)c4)c3)cc12 [Example 54, 1-(4-(3-Amino-1H-indazol-5-yl)pyridin-2-yl)-3-(3-(hydroxymethyl)phenyl)urea]
11 | 21 nM | 503 nM | NC(=O)c1cccc(NC(=O)Nc2cc(-c3ccc4[nH]nc(N)c4c3)ccn2)c1 [Example 55, 3-(3-(4-(3-Amino-1H-indazol-5-yl)pyridin-2-yl)ureido)benzamide]
12 | 237 nM | 3500 nM | Nc1n[nH]c2ccc(-c3ccnc(NC(=O)Nc4cccc(Oc5ccccc5)c4)c3)cc12 [Example 56, 1-(4-(3-Amino-1H-indazol-5-yl)pyridin-2-yl)-3-(3-phenoxyphenyl)urea]
13 | 38 nM | 4200 nM | Nc1n[nH]c2ccc(-c3ccnc(NC(=O)Nc4cccc(OCc5ccccc5)c4)c3)cc12 [Example 57, 1-(4-(3-Amino-1H-indazol-5yl)pyridin-2-yl)-3-(3-(benzyloxy)phenyl)urea]
14 | 80 nM | 1970 nM | Nc1n[nH]c2ccc(-c3ccnc(NC(=O)Nc4cccc(OCc5ccc(F)cc5)c4)c3)cc12 [Example 58, 1-(4-(3-Amino-1H-indazol-5-yl)pyridin2-yl)-3-(3-((4-fluorobenzyl)oxy)phenyl)urea]
15 | 93 nM | 1780 nM | Nc1n[nH]c2ccc(-c3ccnc(NC(=O)Nc4cccc(OCc5cccc(F)c5)c4)c3)cc12 [Example 59, 1-(4-(3-Amino-1H-indazol-5-yl)pyridin-2-yl)-3-(3-((3-fIuorobenzyl)oxy)phenyl)urea]
16 | 76 nM | 2480 nM | Nc1n[nH]c2ccc(-c3ccnc(NC(=O)Nc4cccc(OCc5ccccc5F)c4)c3)cc12 [Example 60, 1-(4-(3-Amino-1H-indazol-5-yl)pyridin-2-yl)-3-(3-((2-fluorobenzyl)oxy)phenyl)urea]
17 | 171 nM | 419 nM | Nc1n[nH]c2ccc(-c3ccnc(NC(=O)Nc4cccc(C(=O)Nc5ccccc5)c4)c3)cc12 [Example 61, 3-(3-(4-(3-Amino-1H-indazol-5-yl)pyridine-2-yl)ureido)-N-phenylbenzamide]
18 | 22 nM | 115 nM | Nc1n[nH]c2ccc(-c3ccnc(NC(=O)Nc4ccc(F)cc4)c3)cc12 [Example 62, 1-(4-(3-Amino-1H-indazol-5-yl)pyridine-2-yl)-3-(4-fluorophenyl)urea]
19 | 48 nM | 1720 nM | Nc1n[nH]c2ccc(-c3ccnc(NC(=O)Nc4ccc(Cl)cc4)c3)cc12 [Example 63]
20 | 76 nM | 2900 nM | CC(C)(C)c1ccc(NC(=O)Nc2cc(-c3ccc4[nH]nc(N)c4c3)ccn2)cc1 [Example 64, 1-(4-(3-Amino-1H-indazol-5-yl)pyridin-2-yl)-3-(4-(tert-butyl)phenyl)urea]
21 | 27 nM | 419 nM | CS(=O)(=O)c1ccc(NC(=O)Nc2cc(-c3ccc4[nH]nc(N)c4c3)ccn2)cc1 [Example 65, 1-(4-(3-Amino-1H-indazol-5-yl)pyridin-2-yl)-3-(4-(methylsulfonyl)phenyl)urea]
22 | 46 nM | 1050 nM | Cc1ccccc1NC(=O)Nc1cc(-c2ccc3[nH]nc(N)c3c2)ccn1 [Example 66, 1-(4-(3-Amino-1H-indazol-5-yl)pyridin-2-yl)-3-(o-tolyl)urea]
23 | 300 nM | 4200 nM | CCc1ccccc1NC(=O)Nc1cc(-c2ccc3[nH]nc(N)c3c2)ccn1 [Example 67, 1-(4-(3-Amino-1H-indazol-5-yl)pyridin-2-yl)-3-(2-ethylphenyl)urea]
24 | 100 nM | 1900 nM | CC(C)c1ccccc1NC(=O)Nc1cc(-c2ccc3[nH]nc(N)c3c2)ccn1 [Example 68, 1-(4-(3-Amino-1H-indazol-5-yl)pyridin-2-yl)-3-(2-isopropylphenyl)urea]
25 | 42 nM | 1190 nM | Nc1n[nH]c2ccc(-c3ccnc(NC(=O)Nc4cccnc4)c3)cc12 [Example 69, 1-(4-(3-Amino-1H-indazol-5-yl)pyridin-2-yl)-3-(pyridin-3-yl)urea]
26 | 8 nM | 32 nM | Nc1ccc(C#Cc2c(-c3ccc4[nH]nc(N)c4c3)ccnc2N)cc1 [Example 76, 5-(2-Amino-3-((4-aminophenyl)ethynyl)pyridine-4-yl)-1H-indazol-3-amine]
